Measured values from US20100075907A1, “NEUROMEDIN U RECEPTOR AGONISTS AND USES THEREOF” (priority 2006, published 2010).
Non-standard residues stand in square brackets, D forms with d. Residues, ends and D or L forms follow the SMILES beside them. No end group written: not given here. *: point of attachment. X1 = CC(C)CCC[C@@H](C)[C@H]1CC[C@H]2[C@@H]3CC=C4C[C@@H](OC(=O)C*)CC[C@]4(C)[C@H]3CC[C@]12C; Succinimide(1-Et,3-yl) = CCN1C(=O)CC(*)C1=O; Palmitoyl = CCCCCCCCCCCCCCCC(=O)*

Experiments:
Assay type in all cases: cell-based
mouse NMUR1-ATG = molecular target: T1, mouse NMUR1-ATG (Mus musculus, UniProt O55040); assay: FLIPR calcium mobilization assay, mouse NMUR1-ATG; parameters: expressed in transfected cells; host or cells: FLP-In CHO or HEK-293 FLP-In cells (pcDNA5); conditions: for EC50: FLIPR; for IC50: functional data
T1 sequence (O55040 1-428): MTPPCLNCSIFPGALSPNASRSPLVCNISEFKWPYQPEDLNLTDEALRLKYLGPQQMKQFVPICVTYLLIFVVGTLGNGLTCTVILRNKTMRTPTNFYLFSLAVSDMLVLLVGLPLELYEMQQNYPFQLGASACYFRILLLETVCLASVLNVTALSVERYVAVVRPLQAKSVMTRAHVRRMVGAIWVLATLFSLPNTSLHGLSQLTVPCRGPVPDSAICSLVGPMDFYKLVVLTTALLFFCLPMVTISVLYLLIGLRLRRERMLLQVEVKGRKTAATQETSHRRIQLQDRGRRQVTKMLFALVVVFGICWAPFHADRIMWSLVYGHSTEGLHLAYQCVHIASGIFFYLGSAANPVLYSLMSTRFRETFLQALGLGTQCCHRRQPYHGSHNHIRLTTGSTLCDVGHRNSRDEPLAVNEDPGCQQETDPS
Source text: (§1) Human, mouse or rat cDNAs encoding NMUR1 or NMUR2 (as described in Howard et al. Nature 406: 70-74 (2000) were subcloned in pcDNA5 (Invitrogen) and transfected into FLP-In CHO cells and HEK-293 FLP-In cells purchased from Invitrogen (Carlsbad, Calif.) using lipofectamine (Invitrogen). The Flp-In system allows integration and expression of a particular gene of interest at a specific genomic location utilizing the Flp recombinase from yeast. The transfected cells were selected by growth in medium containing 200 μg/mL hygromycin (Invitrogen). Populations were frozen at early passage numbers, and these stocks were used for further studies. Stable clones that expressed the mRNAs were identified functionally by FLIPR as well as by RT-PCR. […] Two different rodent NMUR1 cell lines were thus generated: one with the codon as predicted from the genomic databases and another cell line with an engineered methionine (ATG) as the start codon. Additionally, stable cell lines expressing the human receptors were generated in HEK-293/aeq17 cells which stably express the aequorin gene under the CMV promoter. The human NMUR2 cDNA was cloned into pcDNA3.1 and human NMUR1 was subcloned into pIRES-puro (Clontech, Mountain View, Calif.), after transfection cells were selected in media containing G418 and either hygromycin (NMUR2) or puromycin (NMUR1).
(§2) The NMU receptors signal primarily through Gαq/11 proteins; therefore calcium mobilization assays can be utilized for functional activity.
(§3) Stable cell lines expressing human and or rodent NMUR1 or human NMUR2 receptors were plated at a density of 12,000 cells per well overnight on poly-lysine coated 384-well black-walled plates. The following day, the media was removed from the plates and the cells were subsequently loaded with Fluo-3 (Molecular Probes), a calcium sensitive dye, diluted in FLIPR buffer (1× Hank's buffered saline containing 20 mM HEPES, 0.1% BSA, 2.5 mM probenecid (Sigma) and 1.6 mM TR40). All reagents are from Invitrogen unless otherwise noted. Peptide stocks were resuspended in DMSO at a stock concentration of 2 mM and diluted in FLIPR buffer on the day of the experiment to a 4 μM working stock solution.
(§4) After a 90 minute incubation at room-temperature, cell plates were loaded onto a FLIPR (Molecular Devices) to monitor cellular fluorescence (excitation=488 nm; emission=540 nm) before and after compound/peptide addition. Eight to twelve point dose responses were tested on NMUR-expressing cell lines using FLIPR with 1 μM peptide as the highest dose. The response after peptide addition was taken as the maximum fluorescence units minus the fluorescence immediately prior to stimulation for each well. EC50 values were calculated using GraphPad Prism (San Diego, Calif.) software.
(§5) In vitro responses of Neuromedin U receptor agonists (NMU1 to NMU25) in the FLIPR assay for human (Table 3), mouse (Table 4) and rat (Table 5) NMUR1 and NMUR2. EC50s are reported in nM values. Percent activity refers to the maximum response at 1 μM compared to the hNMU-25 response at the same concentration. NT=not tested.

hNMUR2 = hNMUR2 (Homo sapiens, UniProt Q9GZQ4); assay: FLIPR calcium mobilization assay, human NMUR2; parameters: expressed in transfected cells; host or cells: FLP-In CHO or HEK-293 FLP-In cells (pcDNA5); HEK-293/aeq17 lines (pcDNA3.1) were also made; conditions: for EC50: FLIPR
Chain of hNMUR2 (Q9GZQ4 whole entry): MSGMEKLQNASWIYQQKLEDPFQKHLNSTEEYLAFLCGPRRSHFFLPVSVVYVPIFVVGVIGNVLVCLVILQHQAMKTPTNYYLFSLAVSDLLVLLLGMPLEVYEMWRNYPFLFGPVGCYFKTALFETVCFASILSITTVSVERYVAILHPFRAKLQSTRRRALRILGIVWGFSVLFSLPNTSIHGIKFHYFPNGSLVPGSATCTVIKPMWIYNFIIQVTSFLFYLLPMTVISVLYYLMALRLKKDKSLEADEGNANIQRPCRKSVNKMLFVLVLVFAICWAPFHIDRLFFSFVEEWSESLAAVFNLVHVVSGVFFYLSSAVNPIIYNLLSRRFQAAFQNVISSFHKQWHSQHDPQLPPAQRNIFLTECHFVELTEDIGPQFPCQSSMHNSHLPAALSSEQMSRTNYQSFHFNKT
Source text: as §1, §2, §3, §4, §5

hNMUR1 = molecular target: T2, hNMUR1 (Homo sapiens, UniProt Q9HB89); assay: FLIPR calcium mobilization assay, human NMUR1; parameters: expressed in transfected cells; host or cells: FLP-In CHO or HEK-293 FLP-In cells (pcDNA5); HEK-293/aeq17 lines (pIRES-puro) were also made; conditions: for EC50: FLIPR
T2 sequence (Q9HB89 1-426): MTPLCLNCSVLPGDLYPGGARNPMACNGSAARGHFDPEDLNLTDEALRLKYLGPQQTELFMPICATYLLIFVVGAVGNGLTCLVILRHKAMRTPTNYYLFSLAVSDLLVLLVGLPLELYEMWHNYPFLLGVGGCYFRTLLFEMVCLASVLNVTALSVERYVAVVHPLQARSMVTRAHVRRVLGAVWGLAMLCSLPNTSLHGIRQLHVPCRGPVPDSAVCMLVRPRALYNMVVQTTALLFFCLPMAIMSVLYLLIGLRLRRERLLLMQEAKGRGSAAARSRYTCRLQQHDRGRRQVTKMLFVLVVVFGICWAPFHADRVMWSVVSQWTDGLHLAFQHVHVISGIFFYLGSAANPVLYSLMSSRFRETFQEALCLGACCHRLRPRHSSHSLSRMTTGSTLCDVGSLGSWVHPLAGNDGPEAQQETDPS
Source text: as §1, §2, §3, §4, §5

[1] = maximum response at 1 μM compared to hNMU-25, mouse NMUR1-ATG
[2] = maximum response at 1 μM compared to hNMU-25, human NMUR2
[3] = maximum response at 1 μM compared to hNMU-25 response at same concentration, human NMUR1

% Activity (mouse NMUR1-ATG; [1]) [%]	% Activity (hNMUR2; [2]) [%]	% Activity (hNMUR1; [3]) [%]	EC50 (mouse NMUR1-ATG; mouse NMUR1-ATG) [nM]	EC50 (hNMUR1; human NMUR1) [nM]	EC50 (hNMUR2; human NMUR2) [nM]	Compound	IC50 (mouse NMUR1-ATG; mouse R1-ATG) [nM]	% Activity (mouse NMUR1-ATG; functional, mouse R1-ATG, relative to native hNMU responses) [%]	% Activity (hNMUR2; functional, human R2, relative to native hNMU responses) [%]	% Activity (hNMUR1; functional, human R1, relative to native hNMU responses) [%]
100	100	99.1				CCN1C(=O)CC(SC[C@H](NC(C)=O)C(=O)N[C@@H](Cc2ccccc2)C(=O)N[C@@H](CCCNC(=N)N)C(=O)N[C@H](C(=O)N[C@@H](CC(=O)O)C(=O)N[C@@H](CCC(=O)O)C(=O)N[C@@H](CCC(=O)O)C(=O)N[C@@H](Cc2ccccc2)C(=O)N[C@@H](CCC(N)=O)C(=O)N[C@@H](CO)C(=O)N2CCC[C@H]2C(=O)N[C@@H](Cc2ccccc2)C(=O)N[C@@H](C)C(=O)N[C@@H](CO)C(=O)N[C@@H](CCC(N)=O)C(=O)N[C@@H](CO)C(=O)N[C@@H](CCCNC(=N)N)C(=O)NCC(=O)N[C@@H](Cc2ccc(O)cc2)C(=O)N[C@@H](Cc2ccccc2)C(=O)N[C@@H](CC(C)C)C(=O)N[C@@H](Cc2ccccc2)C(=O)N[C@@H](CCCNC(=N)N)C(=O)N2CCC[C@H]2C(=O)N[C@@H](CCCNC(=N)N)C(=O)N[C@@H](CC(N)=O)C(N)=O)C(C)C)C1=O (stereo partly drawn) [NMU8] (Ac-C(Succinimide(1-Et,3-yl))FRVDEEFQSPFASQSRGYFLFRPRN-NH2)				
		66.9	14	300		Ac-C4-C4-FRVDEEFQSPFASQSRGYFLFRPRN-CONH2 ({Ac-C(PEG 20 kDa)-C(PEG 20 kDa)}-FRVDEEFQSPFASQSRGYFLFRPRN-NH2) [NMU23, C4 = Cys(PEG)20 kDa]				
100	100	97.0			2.6	H-FRVDEEFQSPFASQSRPYFLFRPRN-NH2 [NMU4]				
	98.8	83.0	10.2	168	44.1	Pam-C2FRVDEEFQSPFASQSRGYFLFRPRN-CONH2 ({Palmitoyl-C(PEG 40 kDa)}-FRVDEEFQSPFASQSRGYFLFRPRN-NH2) [NMU25, Pam = palmitoyl; C2 = Cys(PEG)240 kDa]				
100	98.1	98.1				Ac-FRVDEEFQSPFASQSRPYFLFRPRN-NH2 [NMU5]				
100	97.4	99.0		5.5	2.6	Ac-FRVDEEFQSPFASQSRGYFLFRPRN-NH2 [NMU2]				
						CC(C)C[C@@H](NC(=O)[C@H](Cc1ccccc1)NC(=O)[C@H](Cc1ccc(O)cc1)NC(=O)CNC(=O)[C@H](CCCNC(=N)N)NC(=O)[C@H](CO)NC(=O)[C@H](CCC(N)=O)NC(=O)[C@H](CO)NC(=O)[C@H](C)NC(=O)[C@H](Cc1ccccc1)NC(=O)[C@@H]1CCCN1C(=O)[C@H](CO)NC(=O)[C@H](CCC(N)=O)NC(=O)[C@H](Cc1ccccc1)NC(=O)[C@H](CCC(=O)O)NC(=O)[C@H](CCC(=O)O)NC(=O)[C@H](CC(=O)O)NC(=O)[C@@H](NC(=O)[C@H](CCCNC(=N)N)NC(=O)[C@@H](N)Cc1ccccc1)C(C)C)C(=O)N[C@@H](Cc1c[nH]c2ccccc12)C(=O)N[C@@H](CCCNC(=N)N)C(=O)N1CCC[C@H]1C(=O)N[C@@H](CCCNC(=N)N)C(=O)N[C@@H](CC(N)=O)C(N)=O [Agonist H] (H-FRVDEEFQSPFASQSRGYF[dL]WRPRN-NH2; N-terminus assumed)	25	90	0	90
100	100	98.9				GYFLFRPRN-NH2 [NMU3]				
	97.9	93.2	9.1	14.5	24.2	Ac-C4FRVDEEFQSPFASQSRGYFLFRPRN-CONH2 ({Ac-C(PEG 20 kDa)}-FRVDEEFQSPFASQSRGYFLFRPRN-NH2) [NMU21, C4 = Cys(PEG)20 kDa]				
100	105	95.6				CCN1C(=O)CC(SC[C@H](NC(C)=O)C(=O)N[C@@H](CSC2CC(=O)N(CC)C2=O)C(=O)N[C@@H](Cc2ccccc2)C(=O)N[C@@H](CCCNC(=N)N)C(=O)N[C@H](C(=O)N[C@@H](CC(=O)O)C(=O)N[C@@H](CCC(=O)O)C(=O)N[C@@H](CCC(=O)O)C(=O)N[C@@H](Cc2ccccc2)C(=O)N[C@@H](CCC(N)=O)C(=O)N[C@@H](CO)C(=O)N2CCC[C@H]2C(=O)N[C@@H](Cc2ccccc2)C(=O)N[C@@H](C)C(=O)N[C@@H](CO)C(=O)N[C@@H](CCC(N)=O)C(=O)N[C@@H](CO)C(=O)N[C@@H](CCCNC(=N)N)C(=O)NCC(=O)N[C@@H](Cc2ccc(O)cc2)C(=O)N[C@@H](Cc2ccccc2)C(=O)N[C@@H](CC(C)C)C(=O)N[C@@H](Cc2ccccc2)C(=O)N[C@@H](CCCNC(=N)N)C(=O)N2CCC[C@H]2C(=O)N[C@@H](CCCNC(=N)N)C(=O)N[C@@H](CC(N)=O)C(N)=O)C(C)C)C1=O (stereo partly drawn) [NMU22] (Ac-C(Succinimide(1-Et,3-yl))C(Succinimide(1-Et,3-yl))FRVDEEFQSPFASQSRGYFLFRPRN-NH2)				
						H-FRVDEEFQSPFASQSRGYFLFRPRN-NH2 [hNMU-25, reference compound]	0.9			

Compound	% Activity (mouse NMUR1-ATG; [1]) [%]	% Activity (hNMUR2; [2]) [%]	% Activity (hNMUR1; [3]) [%]	EC50 (mouse NMUR1-ATG; mouse NMUR1-ATG) [nM]	EC50 (hNMUR1; human NMUR1) [nM]	EC50 (hNMUR2; human NMUR2) [nM]	IC50 (mouse NMUR1-ATG; mouse R1-ATG) [nM]	% Activity (mouse NMUR1-ATG; functional, mouse R1-ATG, relative to native hNMU responses) [%]	% Activity (hNMUR2; functional, human R2, relative to native hNMU responses) [%]	% Activity (hNMUR1; functional, human R1, relative to native hNMU responses) [%]
CC(=O)N[C@@H](CSCC(=O)O[C@H]1CC[C@@]2(C)C(=CC[C@H]3[C@@H]4CC[C@H]([C@H](C)CCCC(C)C)[C@@]4(C)CC[C@@H]32)C1)C(=O)NCC(=O)N[C@@H](Cc1ccc(O)cc1)C(=O)N[C@@H](Cc1ccccc1)C(=O)N[C@@H](CC(C)C)C(=O)N[C@@H](Cc1ccccc1)C(=O)N[C@@H](CCCNC(=N)N)C(=O)N1CCC[C@H]1C(=O)N[C@@H](CCCNC(=N)N)C(=O)N[C@@H](CC(N)=O)C(N)=O [NMU11] (Ac-C(X1)GYFLFRPRN-NH2)	81.3	37.3	20.6							
